Source: US8871726B2, “C-aryl glucoside derivative, preparation method therefor, and use thereof” (Shanghai Allist Pharmaceuticals, Inc., priority 2010, dated 2014)

How the values were obtained:
normal rat = experiment: Effect on the urine glucose excretion of the normal rat; type: in vivo; details: normal SD rats, single intragastric oral administration, then glucose 2 g/kg; in comparison with the blank control, P<0.01, dosage-dependent
From the text: The drug effect of promoting the urine glucose excretion can be determined according to the conventional assay. One preferable evaluation assay is to detect the effect of the present compound on the urine glucose excretion of the normal rat. The assay can be conducted as follows. Thirty 7-week-old male SD rats (about 200 g) are used in the assay. The tested compound having a purity of 97.8% is formulated with 0.75% CMC-Na. […] The SD rats are acclimatized for 7 days, and then placed in the metabolic cages. The rats are fasted overnight (18 hr) under the free access to water. The basic urine samples are collected, and then thirty rats are weighed and grouped randomly into five groups, six rats per group. The rats are administered with the tested compounds or the positive control drug at low dosage, medium dosage, or high dosage. Fifteen minutes after the administration, the rats are intragastrically administrated with 50% glucose solution (2 g/kg). For ensuring a complete collection of the 24-hour urine, the rats are immediately placed in the metabolic cage after the administration of the tested compounds or the positive control drug. One hour after the administration of the glucose solution, the feeds are supplied to the rats. The urines after the administration of the tested compounds or the positive control drug are collected for 24 hours, and then the urine volumes are calculated and the urine glucose concentrations are detected.
The data are analyzed with the software SPSS 12.0, and the quantized data are expressed in “average±standard deviation”. Multiple sets of data are compared according to the analysis of variance (One-way ANOVA). P<0.05 represents statistical difference.
Thirty 7-week-old male SD rats (about 200 g) were used. The compound of Example 2 having a purity of 97.8% was chose as the present compound and formulated with 0.75% CMC-Na. […] The SD rats were acclimatized for 7 days, and then placed in the metabolic cages. The rats were fasted overnight (18 hr) under the free access to water. The basic urine samples were collected, and then thirty rats were weighed and grouped randomly into five groups, six rats per group.
Fifteen minutes after the administration, the rats were intragastrically administrated with 50% glucose solution (2 g/kg). For ensuring a complete collection of the 24-hour urine, the rats were immediately placed in the metabolic cage after the administration of the tested compounds or the positive control drug. […] The urines after the administration of the tested compounds or the positive control drug were collected for 24 hours, and then the urine volumes were calculated and the urine glucose concentrations were detected.
The data were analyzed with the software SPSS 12.0, and the quantized data were expressed in “average±standard deviation”. […]

human SGLT-2 = target: T1, human SGLT-2 (Homo sapiens, UniProt P31639); experiment: Inhibitory effect on human SGLT-2 (14C-methyl-a-D-glucopyranoside uptake in transfected NIH3T3 cells); type: cell-based; details: NIH3T3 cells expressing human SGLT-2; read-out: IC50 value for inhibiting the human SGLT-2
T1 construct: expressed in transfected cells; host or cells: NIH3T3 cells
T1 sequence (P31639 1-672): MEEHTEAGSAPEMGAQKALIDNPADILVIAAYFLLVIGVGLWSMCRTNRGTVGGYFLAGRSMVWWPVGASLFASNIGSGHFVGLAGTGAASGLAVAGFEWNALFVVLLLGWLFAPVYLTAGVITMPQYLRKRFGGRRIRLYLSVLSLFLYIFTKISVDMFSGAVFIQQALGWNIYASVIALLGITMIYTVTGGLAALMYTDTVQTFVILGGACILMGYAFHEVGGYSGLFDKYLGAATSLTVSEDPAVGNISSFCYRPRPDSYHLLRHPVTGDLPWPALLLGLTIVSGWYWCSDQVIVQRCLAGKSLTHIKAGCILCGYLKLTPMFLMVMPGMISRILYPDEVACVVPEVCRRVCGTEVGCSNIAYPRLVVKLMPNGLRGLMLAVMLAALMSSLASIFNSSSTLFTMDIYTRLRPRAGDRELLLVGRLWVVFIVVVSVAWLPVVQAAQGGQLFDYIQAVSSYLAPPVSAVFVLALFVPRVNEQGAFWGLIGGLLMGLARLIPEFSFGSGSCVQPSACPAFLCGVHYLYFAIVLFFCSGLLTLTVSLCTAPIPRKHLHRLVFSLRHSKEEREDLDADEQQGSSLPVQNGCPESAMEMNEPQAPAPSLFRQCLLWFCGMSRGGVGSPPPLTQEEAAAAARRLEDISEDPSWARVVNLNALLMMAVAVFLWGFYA
Experimental: (§1) 0.2% gelatin was plated on a 24-well plate, and the plate was kept overnight. The plate was washed with PBS once before use. The NIH3T3 cells expressing human SGLT-2 by transfection were inoculated into the 24-well plate in 100,000 cells per well and 1 mL culture medium per well. On the third day, the culture medium was changed once, and simultaneously sodium butyrate was added thereto with a final concentration of 2 mM. The cells were washed with KRH-Na^+ (500 μL) twice, and then incubated with KRH-Na^+ (500 μL) for 30 minutes. The cells were then treated with 200 μL of KRH-Na^+ containing the compound of Example 2, and 50 μL of an uptake buffer (KRH-Na^+ plus methyl-a-D-[U-14C] glucopyranoside and 1 mM methyl-a-D-glucopyranoside). The cells were washed with 500 μL wash buffer thrice with the operation on ice, and baked overnight. The cells were lysed with 200 μL of 0.25N NaOH at 4° C. for 1 hr. The lysate was removed into an EPPENDORF tube, and centrifuged at 4° C. under 12000 g for 5 mins. […] of supernatant was placed in a 2 mL EPPENDORF tube, and 1.7 mL of scintillation cocktail was added thereto. The mixture was shaked vigorously, and then counted. The inhibition rate of the compound of Example 2 at each of concentrations on the transporting activity was calculated.
(§2) IC50 value could be determined by nonlinear curve fitting of sample activities vs. sample concentrations. […]

human SGLT-1 = target: T2, human SGLT-1 (Homo sapiens, UniProt P13866); experiment: Inhibitory effect on human SGLT-1 (14C-methyl-a-D-glucopyranoside uptake in transfected NIH3T3 cells); type: cell-based; details: NIH3T3 cells expressing human SGLT-1; read-out: IC50 value for inhibiting the human SGLT-1
T2 sequence (P13866 1-664): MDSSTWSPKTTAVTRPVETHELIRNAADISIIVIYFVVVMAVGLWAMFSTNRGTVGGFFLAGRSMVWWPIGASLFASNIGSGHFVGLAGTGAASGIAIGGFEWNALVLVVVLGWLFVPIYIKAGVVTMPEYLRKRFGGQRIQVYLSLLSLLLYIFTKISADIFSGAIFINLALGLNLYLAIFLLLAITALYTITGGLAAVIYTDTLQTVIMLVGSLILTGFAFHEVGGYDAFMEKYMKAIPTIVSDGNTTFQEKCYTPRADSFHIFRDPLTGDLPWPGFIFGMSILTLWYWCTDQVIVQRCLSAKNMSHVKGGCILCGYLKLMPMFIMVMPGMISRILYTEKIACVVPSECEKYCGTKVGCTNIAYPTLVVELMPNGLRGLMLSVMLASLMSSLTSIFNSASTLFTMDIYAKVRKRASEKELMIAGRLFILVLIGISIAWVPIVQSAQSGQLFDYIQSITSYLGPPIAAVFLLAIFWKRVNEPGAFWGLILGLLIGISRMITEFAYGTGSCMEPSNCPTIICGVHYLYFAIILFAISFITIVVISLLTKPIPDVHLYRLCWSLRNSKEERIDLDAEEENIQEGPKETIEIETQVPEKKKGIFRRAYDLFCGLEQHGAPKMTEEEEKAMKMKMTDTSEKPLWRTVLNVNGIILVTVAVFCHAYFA
Experimental: as §1, with “SGLT-1” for “SGLT-2”
as §2

| IC50 (human SGLT-2) | IC50 (human SGLT-1) | Structure (SMILES) | 24-hour urine glucose masses (normal rat) | 24-hour urine volumes (normal rat) |
| --- | --- | --- | --- | --- |
| 0.000172 µM | 28.7 µM | CS[C@H]1O[C@@H](c2ccc(C)c(Cc3ccc(-c4ccc(F)cc4)s3)c2)[C@H](O)[C@@H](O)[C@@H]1O [Example 2, (2S,3R,4R,5S,6R)-2-[3-((5-(4-fluorophenyl)thienyl)-2-methylene)-4-methylphenyl)-6-methylthio-tetrahydropyran-3,4,5-triol] | remarkably increased | remarkably increased |
|  |  | CCOc1ccc(Cc2cc([C@@H]3O[C@H](CO)[C@@H](O)[C@H](O)[C@H]3O)ccc2Cl)cc1 [Dapagliflozin, reference compound] | remarkably increased | remarkably increased |
